Assay results as given in the supplement of paper PMC5908809.

Experiments:
[1] = tested on: normal NK cells expanded with K562-aAPC; assay: percent inhibition of viability; higher = more inhibition; settings: 72 h, IL-2 2.5 ng/mL
Procedure: (§1)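 Drug sensitivity and resistance testing on K562-aAPC-expanded normal NK cells: 5 concentrations (10-fold steps over a 10,000-fold range), 72 h at 37 °C, viability by CellTiter-Glo normalised to DMSO and benzethonium chloride controls; DSS from the fitted curve.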

DERL-7 (IL-2 2.5 ng/mL) [2] = assay: as above; settings: 72 h
IMC-1 (IL-2 20 ng/mL) [3] = assay: as above; settings: 72 h
KAI3 (IL-2 2.5 ng/mL) [4] = assay: as above; settings: 72 h
KHYG-1 (IL-2 2.5 ng/mL) [5] = assay: as above; settings: 72 h
NK-92 (IL-2 2.5 ng/mL) [6] = assay: as above; settings: 72 h
NK-YS (IL-2 2.5 ng/mL) [7] = assay: as above; settings: 72 h
NKL (IL-2 2.5 ng/mL) [8] = assay: as above; settings: 72 h
SNK-6 (IL-2 2.5 ng/mL) [9] = assay: as above; settings: 72 h
YT (IL-2 2.5 ng/mL) [10] = assay: as above; settings: 72 h
[11] = tested on: normal primary NK cells, pool 1 (3 donors) (IL-2 2.5 ng/mL); assay: as above; settings: 72 h
[12] = tested on: normal primary NK cells, pool 1 (3 donors), resting (IL-2 0 ng/mL); assay: as above; settings: 72 h
[13] = tested on: normal primary NK cells, pool 2 (3 donors) (IL-2 2.5 ng/mL); assay: as above; settings: 72 h
[14] = tested on: normal primary NK cells, pool 3 (3 donors) (IL-2 2.5 ng/mL); assay: as above; settings: 72 h
[15] = tested on: normal NK cells expanded with K562-aAPC; assay: drug sensitivity score (DSS) (DSS units); higher = more sensitive; extreme values may be limits of the assay; settings: 72 h; IL-2 2.5 ng/mL
Procedure: as §1

DERL-7 (IL-2 2.5 ng/mL) [16] = assay: as above; settings: 72 h
IMC-1 (IL-2 20 ng/mL) [17] = assay: as above; settings: 72 h
KAI3 (IL-2 2.5 ng/mL) [18] = assay: as above; settings: 72 h
KHYG-1 (IL-2 2.5 ng/mL) [19] = assay: as above; settings: 72 h
NK-92 (IL-2 2.5 ng/mL) [20] = assay: as above; settings: 72 h
NK-YS (IL-2 2.5 ng/mL) [21] = assay: as above; settings: 72 h
NKL (IL-2 2.5 ng/mL) [22] = assay: as above; settings: 72 h
SNK-6 (IL-2 2.5 ng/mL) [23] = assay: as above; settings: 72 h
YT (IL-2 2.5 ng/mL) [24] = assay: as above; settings: 72 h
[25] = tested on: normal primary NK cells, pool 1 (3 donors) (IL-2 2.5 ng/mL); assay: as above; settings: 72 h
[26] = tested on: normal primary NK cells, pool 1 (3 donors), resting (IL-2 0 ng/mL); assay: as above; settings: 72 h
[27] = tested on: normal primary NK cells, pool 2 (3 donors) (IL-2 2.5 ng/mL); assay: as above; settings: 72 h
[28] = tested on: normal primary NK cells, pool 3 (3 donors) (IL-2 2.5 ng/mL); assay: as above; settings: 72 h

C=CC(=O)Nc1cc2c(Nc3ccc(F)c(Cl)c3)ncnc2cc1OCCCN1CCOCC1 [Canertinib] (max concentration tested 10000 nM)
percent inhibition of viability [%]
Settings	1 nM	10 nM	100 nM	1000 nM	10000 nM
DERL-7 (IL-2 2.5 ng/mL) [2]	-1.22	3.31	7.19	46.1	101
IMC-1 (IL-2 20 ng/mL) [3]	-13.9	-4.18	-9.88	-11.9	99.7
KAI3 (IL-2 2.5 ng/mL) [4]	-7.79	-2.37	3.26	43.7	104
KHYG-1 (IL-2 2.5 ng/mL) [5]	-9.72	-6.52	-7.64	4.13	105
NK-92 (IL-2 2.5 ng/mL) [6]	3.42	2.68	6.81	39.8	104
NK-YS (IL-2 2.5 ng/mL) [7]	-6.82	-1.19	-0.2	14.6	103
NKL (IL-2 2.5 ng/mL) [8]	-12.1	-11.6	-5.5	34.5	106
SNK-6 (IL-2 2.5 ng/mL) [9]	-13	-20.2	-15.9	2.62	99.5
YT (IL-2 2.5 ng/mL) [10]	-5.49	-3.57	3.25	14.8	103
[1]	-1.69	-1.95	-1.57	28.3	100
[11]	-5.89	6.82	13.3	76.1	99.2
[12]	2.65	15.7	18.4	74.2	97
[13]	-7.41	-1.65	8.39	58.4	96.8
[14]	-4.75	1.46	0.7	34.3	99.2

Settings	drug sensitivity score
DERL-7 (IL-2 2.5 ng/mL) [16]	10.9
IMC-1 (IL-2 20 ng/mL) [17]	4.78
KAI3 (IL-2 2.5 ng/mL) [18]	11.2
KHYG-1 (IL-2 2.5 ng/mL) [19]	6.47
NK-92 (IL-2 2.5 ng/mL) [20]	10.8
NK-YS (IL-2 2.5 ng/mL) [21]	8.03
NKL (IL-2 2.5 ng/mL) [22]	10.3
SNK-6 (IL-2 2.5 ng/mL) [23]	5.87
YT (IL-2 2.5 ng/mL) [24]	8.07
[15]	9.72
[25]	15.9
[26]	16.2
[27]	12.6
[28]	10.3

COc1ccc(C[C@H](NC(=O)[C@H](C)NC(=O)CN2CCOCC2)C(=O)N[C@@H](Cc2ccccc2)C(=O)C2(C)CO2)cc1 (stereo in doubt) [ONX-0914] (max concentration tested 10000 nM)
percent inhibition of viability [%]
Settings	1 nM	10 nM	100 nM	1000 nM	10000 nM
DERL-7 (IL-2 2.5 ng/mL) [2]	6.02	28.7	92.2	101	101
IMC-1 (IL-2 20 ng/mL) [3]	2.14	-0.04	24.1	100	101
KAI3 (IL-2 2.5 ng/mL) [4]	12.7	28.5	93.7	106	102
KHYG-1 (IL-2 2.5 ng/mL) [5]	-0.77	1.13	29.1	104	101
NK-92 (IL-2 2.5 ng/mL) [6]	-8.67	15.8	93.1	106	102
NK-YS (IL-2 2.5 ng/mL) [7]	13.1	15.9	75	105	102
NKL (IL-2 2.5 ng/mL) [8]	10.8	1.76	103	106	102
SNK-6 (IL-2 2.5 ng/mL) [9]	-1.52	17.8	58.1	101	101
YT (IL-2 2.5 ng/mL) [10]	-1.7	3.7	69.5	104	101
[1]	6.48	5.84	57.1	101	101
[11]	-4.25	8.47	92.5	100	100
[12]	-25.3	21.3	91	96.4	97.3
[13]	-9.54	18.2	87.2	99.6	99.8
[14]	-6.21	2.14	73.6	99.9	100

Settings	drug sensitivity score
DERL-7 (IL-2 2.5 ng/mL) [16]	32.7
IMC-1 (IL-2 20 ng/mL) [17]	21.7
KAI3 (IL-2 2.5 ng/mL) [18]	32.9
KHYG-1 (IL-2 2.5 ng/mL) [19]	22.3
NK-92 (IL-2 2.5 ng/mL) [20]	31.6
NK-YS (IL-2 2.5 ng/mL) [21]	28.6
NKL (IL-2 2.5 ng/mL) [22]	30.9
SNK-6 (IL-2 2.5 ng/mL) [23]	25.6
YT (IL-2 2.5 ng/mL) [24]	26.3
[15]	24.8
[25]	30.5
[26]	31.9
[27]	30.7
[28]	26.7

O=c1[nH]c(=O)n([C@H]2C[C@H](O)[C@@H](CO)O2)cc1F [Floxuridine] (max concentration tested 10000 nM)
percent inhibition of viability [%]
Settings	1 nM	10 nM	100 nM	1000 nM	10000 nM
DERL-7 (IL-2 2.5 ng/mL) [2]	-7.14	68.8	44.1	69.8	94.3
IMC-1 (IL-2 20 ng/mL) [3]	-2.91	-1.68	33.5	96.1	95.4
KAI3 (IL-2 2.5 ng/mL) [4]	-6.31	31.3	63.4	63.7	45.6
KHYG-1 (IL-2 2.5 ng/mL) [5]	0.05	58.9	96.8	99.1	95.1
NK-92 (IL-2 2.5 ng/mL) [6]	-16.2	25.2	72.5	82.6	78.8
NK-YS (IL-2 2.5 ng/mL) [7]	-4.95	13.6	73.5	84	78.7
NKL (IL-2 2.5 ng/mL) [8]	-14.5	15.7	48.8	68.5	82.9
SNK-6 (IL-2 2.5 ng/mL) [9]	15.3	9.27	54	91.8	89.4
YT (IL-2 2.5 ng/mL) [10]	-3.94	0.97	9.92	50.2	57.9
[1]	-4.55	-4.54	25.1	39.5	43.4
[11]	-6.27	-7.98	-5.58	6.75	5.43
[12]	-14.4	-13.5	-18.7	8.19	9.19
[13]	-16.1	-13.4	-7.65	-1.05	8.12
[14]	-14	-7.11	-9.62	-2.43	-3.12

Settings	drug sensitivity score
DERL-7 (IL-2 2.5 ng/mL) [16]	25.9
IMC-1 (IL-2 20 ng/mL) [17]	22
KAI3 (IL-2 2.5 ng/mL) [18]	24
KHYG-1 (IL-2 2.5 ng/mL) [19]	37.2
NK-92 (IL-2 2.5 ng/mL) [20]	27.2
NK-YS (IL-2 2.5 ng/mL) [21]	25.9
NKL (IL-2 2.5 ng/mL) [22]	20.2
SNK-6 (IL-2 2.5 ng/mL) [23]	23.3
YT (IL-2 2.5 ng/mL) [24]	10.4
[15]	10.9
[25]	0
[26]	0
[27]	0
[28]	0
